Experimental findings from patent publication US6916812B2, “Alpha-aminoamide derivatives as melanocortin agonists” (Bristol-Myers Squibb Company, priority 2001, dated 2005) are described below.

Like-named read-outs stand apart in the source and are kept apart here.

The target in this assay is T1, cloned human MC4R (Homo sapiens, UniProt P32245).
T1 construct: made in house; host or cells: Hi5 insect cells (baculovirus infection); membrane preparation
Put plainly: Membrane binding assay: competitive inhibition of [125I]NDP-α-MSH binding. To be noted: for inhibition at 10 µM: read-out: Displacement Rate (%) (at 10 μM).

Setting [1] is: at 10 μM, [125I]NDP-α-MSH displacement.

T1 sequence (P32245 whole entry): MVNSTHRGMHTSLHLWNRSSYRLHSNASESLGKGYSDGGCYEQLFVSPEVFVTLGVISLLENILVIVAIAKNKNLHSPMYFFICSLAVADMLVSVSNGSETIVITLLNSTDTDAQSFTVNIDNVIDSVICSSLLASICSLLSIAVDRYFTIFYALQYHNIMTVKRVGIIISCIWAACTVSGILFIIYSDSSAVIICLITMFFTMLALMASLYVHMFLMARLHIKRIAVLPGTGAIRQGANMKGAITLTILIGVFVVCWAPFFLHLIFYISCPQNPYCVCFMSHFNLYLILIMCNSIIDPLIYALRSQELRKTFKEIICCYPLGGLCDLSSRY

The IC50 is the concentration that gives 50% inhibition. Consider `CCCCc1ccc(COc2ccc(C[C@H](N)C(=O)N3CCN(Cc4cccc(Cl)c4Cl)CC3)cc2)cc1` [Example 184], for which the “Displacement Rate (%) (at 10 μM)” value under setting [1] is “+++ (+++ = 91-100)”. Further, the IC50 (read-out: MC4R IC50) is < 1.5 µM. With `N[C@@H](Cc1ccc(OCc2ccccc2)cc1)C(=O)N1CCCN(Cc2ccc(Br)cc2)CC1` [Example 56], the IC50 is > 3 µM and the inhibition at 10 µM lay within 35 to 70%.

As to `N[C@@H](Cc1ccc(OCc2ccccc2)cc1)C(=O)N1CCN(Cc2cc(O)ccc2[N+](=O)[O-])CC1` [Example 148], the inhibition at 10 µM lay within 35 to 70%. In addition, the half-maximal inhibitory concentration (IC50) (read-out: MC4R IC50) was > 3 µM. As for `CCOc1ccccc1CN1CCN(C(=O)[C@@H](N)Cc2ccc(OCc3ccccc3)cc2)CC1` [Example 116], under setting [1], the inhibition at 10 µM was in the range of 71 to 90%. Further, the IC50 (read-out: MC4R IC50) fell in the range of 1.5 to 3 µM. For the molecule `N[C@@H](Cc1ccc(OCc2c(F)c(F)c(F)c(F)c2F)cc1)C(=O)N1CCN(Cc2cccc(Cl)c2Cl)CC1` [Example 185], the “Displacement Rate (%) (at 10 μM)” value under setting [1] is on record as “+++ (+++ = 91-100)”. The half-inhibitory concentration (IC50) (read-out: MC4R IC50) is < 1.5 µM. As for `Cc1cccc(Oc2ccc(C[C@H](N)C(=O)N3CCN(Cc4cccc(Cl)c4Cl)CC3)cc2)c1` [Example 347], where the note is “read-out: MC4R IC50”, the half-maximal inhibitory concentration (IC50) lay within 1.5 to 3 µM. On to `N[C@@H](Cc1ccc(OCc2ccccc2)cc1)C(=O)N1CCCN(Cc2ccc(-c3ccc(Cl)cc3)o2)CC1` [Example 6], for which the inhibition at 10 µM under setting [1] is 91 to 100%. For the same molecule, the concentration for half-maximal inhibition (IC50) (read-out: MC4R IC50) was in the range of 1.5 to 3 µM. As to `N[C@@H](Cc1ccc(OCc2ccccc2)cc1)C(=O)N1CCN(C2CCC(c3ccccc3)CC2)CC1` (some centres unmarked) [Example 118], under setting [1], the inhibition at 10 µM was in the range of 71 to 90%. Also, where the note is “read-out: MC4R IC50”, the half-maximal inhibitory concentration (IC50) is > 3 µM.

Turning to `COc1ccc(OC)c(COc2ccc(C[C@H](N)C(=O)N3CCN(Cc4cccc(Cl)c4Cl)CC3)cc2)c1` [Example 227], under setting [1], the “Displacement Rate (%) (at 10 μM)” value is on record as “++ (++ = 71-90)”. Moreover, the 50% inhibitory concentration (IC50) (read-out: MC4R IC50) is > 3 µM. Regarding `Cc1cccc(CN2CCCN(C(=O)[C@@H](N)Cc3ccc(OCc4ccccc4)cc3)CC2)c1` [Example 65], under setting [1], the inhibition at 10 µM is 35 to 70%. Besides, the half-inhibitory concentration (IC50) (read-out: MC4R IC50) is > 3 µM.

As for `N[C@@H](Cc1ccc(OCCc2cccc([N+](=O)[O-])c2)cc1)C(=O)N1CCN(Cc2cccc(Cl)c2Cl)CC1` [Example 257], under setting [1], the “Displacement Rate (%) (at 10 μM)” value is “+++ (+++ = 91-100)”. Moreover, under “read-out: MC4R IC50”, the IC50 lay in the range of 1.5 to 3 µM.

For the molecule `CCc1ccc(CN2CCCN(C(=O)[C@@H](N)Cc3ccc(OCc4ccccc4)cc3)CC2)cc1` [Example 38], the inhibition at 10 µM under setting [1] is 71 to 90%. Besides, the IC50 (read-out: MC4R IC50) was > 3 µM.

On to `N[C@@H](Cc1ccc(OCc2ccccc2)cc1)C(=O)N1CCCN(Cc2cc3c(cc2[N+](=O)[O-])OCO3)CC1` [Example 77], for which, under setting [1], the inhibition at 10 µM is 35 to 70%. The half-inhibitory concentration (IC50) (read-out: MC4R IC50) is > 3 µM.

As to `N[C@@H](Cc1ccc(OCc2ccccc2)cc1)C(=O)N1CCCN(Cc2cccc(Oc3ccc(Cl)c(Cl)c3)c2)CC1` [Example 19], under setting [1], the inhibition at 10 µM lay within 91 to 100%. For the same molecule, under “read-out: MC4R IC50”, the IC50 is < 1.5 µM. As to `N[C@@H](Cc1ccc(OCc2ccccc2)cc1)C(=O)N1CCCN(Cc2ccncc2)CC1` [Example 76], the inhibition at 10 µM under setting [1] lay within 35 to 70%. Besides, the IC50 (read-out: MC4R IC50) is > 3 µM. Consider `CC(Cc1cccc(C(F)(F)F)c1)N1CCN(C(=O)[C@@H](N)Cc2ccc(OCc3ccccc3)cc2)CC1` (some centres unmarked) [Example 136], for which the inhibition at 10 µM under setting [1] was 35 to 70%. Also, under “read-out: MC4R IC50”, the IC50 is > 3 µM. For `N[C@@H](Cc1ccc(OCc2ccccc2)cc1)C(=O)N1CCCN(Cc2cccc(C(F)(F)F)c2)CC1` [Example 55], the inhibition at 10 µM under setting [1] is 35 to 70%. Besides, the IC50 (read-out: MC4R IC50) is > 3 µM.

Turning to `CCOc1cccc(CN2CCCN(C(=O)[C@@H](N)Cc3ccc(OCc4ccccc4)cc3)CC2)c1O` [Example 40], the inhibition at 10 µM under setting [1] was in the range of 71 to 90%. In addition, the IC50 (read-out: MC4R IC50) is > 3 µM. As to `N[C@@H](Cc1ccc(OCc2ccccc2)cc1)C(=O)N1CCCN(Cc2ccc(OCc3ccccc3)cc2)CC1` [Example 13], the inhibition at 10 µM under setting [1] fell in the range of 91 to 100%. In addition, where the note is “read-out: MC4R IC50”, the concentration for half-maximal inhibition (IC50) fell in the range of 1.5 to 3 µM. As to `CN(C)c1ccc(CN2CCN(C(=O)[C@@H](N)Cc3ccc(OCc4ccccc4)cc3)CC2)c2ccccc12` [Example 137], under setting [1], the inhibition at 10 µM was in the range of 35 to 70%. For the same molecule, where the note is “read-out: MC4R IC50”, the half-inhibitory concentration (IC50) was > 3 µM. For the molecule `CN(CCCOc1ccc(C[C@H](N)C(=O)N2CCN(Cc3cccc(Cl)c3Cl)CC2)cc1)Cc1ccccc1` [Example 287], the “Displacement Rate (%) (at 10 μM)” value under setting [1] was “+ (+ = 35-70)”. Moreover, the concentration for half-maximal inhibition (IC50) (read-out: MC4R IC50) was > 3 µM. As to `N[C@@H](Cc1ccc(-c2cnc3ccccc3c2)cc1)C(=O)N1CCN(Cc2cccc(Cl)c2Cl)CC1` [Example 341], the inhibition at 10 µM lay within 71 to 90%. Further, the half-maximal inhibitory concentration (IC50) (read-out: MC4R IC50) lay in the range of 1.5 to 3 µM. As for `N[C@@H](Cc1ccc(OCc2cc(Cl)ccc2Cl)cc1)C(=O)N1CCN(Cc2cccc(Cl)c2Cl)CC1` [Example 212], under setting [1], the “Displacement Rate (%) (at 10 μM)” value is recorded as “+++ (+++ = 91-100)”. In addition, where the note is “read-out: MC4R IC50”, the 50% inhibitory concentration (IC50) is < 1.5 µM. For `CC(C)(C)c1cc(CN2CCCN(C(=O)[C@@H](N)Cc3ccc(OCc4ccccc4)cc3)CC2)cc(C(C)(C)C)c1O` [Example 26], the inhibition at 10 µM under setting [1] lay within 71 to 90%. In addition, under “read-out: MC4R IC50”, the IC50 was 1.5 to 3 µM.

For `N[C@@H](Cc1ccc(OCc2c(Cl)cccc2Cl)cc1)C(=O)N1CCN(Cc2cccc(Cl)c2Cl)CC1` [Example 226], under setting [1], the “Displacement Rate (%) (at 10 μM)” value is “++ (++ = 71-90)”. The 50% inhibitory concentration (IC50) (read-out: MC4R IC50) lay in the range of 1.5 to 3 µM.

On to `N[C@@H](Cc1ccc(OCc2ccccc2)cc1)C(=O)N1CCCN(Cc2ccc(Cl)cc2Cl)CC1` [Example 52], for which, under setting [1], the inhibition at 10 µM is 35 to 70%. Further, the IC50 (read-out: MC4R IC50) was > 3 µM. As to `COc1ccc(-c2ccc(C[C@H](N)C(=O)N3CCN(Cc4cccc(Cl)c4Cl)CC3)cc2)cc1` [Example 317], the inhibition at 10 µM under setting [1] was in the range of 91 to 100%. Further, the half-maximal inhibitory concentration (IC50) (read-out: MC4R IC50) fell in the range of 1.5 to 3 µM. On to `Cc1ccc(C)c(CN2CCN(C(=O)[C@@H](N)Cc3ccc(OCc4ccccc4)cc3)CC2)c1` [Example 107], for which the inhibition at 10 µM under setting [1] lay in the range of 71 to 90%. Moreover, the IC50 (read-out: MC4R IC50) lay in the range of 1.5 to 3 µM. Take `COc1ccccc1-c1ccc(C[C@H](N)C(=O)N2CCN(Cc3cccc(Cl)c3Cl)CC2)cc1` [Example 326]: under setting [1], the inhibition at 10 µM fell in the range of 71 to 90%. Besides, the half-inhibitory concentration (IC50) (read-out: MC4R IC50) lay within 1.5 to 3 µM. As for `CC(Cc1cccc(C(F)(F)F)c1)N1CCCN(C(=O)[C@@H](N)Cc2ccc(OCc3ccccc3)cc2)CC1` (some centres unmarked) [Example 44], the inhibition at 10 µM under setting [1] lay within 71 to 90%. Where the note is “read-out: MC4R IC50”, the half-maximal inhibitory concentration (IC50) lay in the range of 1.5 to 3 µM. As for `N[C@@H](Cc1ccc(OCc2cccc(Oc3ccccc3)c2)cc1)C(=O)N1CCN(Cc2cccc(Cl)c2Cl)CC1` [Example 193], under setting [1], the “Displacement Rate (%) (at 10 μM)” value is recorded as “+++ (+++ = 91-100)”. Also, the IC50 (read-out: MC4R IC50) is < 1.5 µM. In the case of `N[C@@H](Cc1ccc(OCc2ccccc2)cc1)C(=O)N1CCCN(Cc2ccc3c(c2)Cc2ccccc2-3)CC1` [Example 10], under setting [1], the inhibition at 10 µM lay within 91 to 100%. The half-inhibitory concentration (IC50) (read-out: MC4R IC50) was 1.5 to 3 µM. `N[C@@H](Cc1ccc(OCc2ccccc2)cc1)C(=O)N1CCCN(Cc2ccccc2)CC1` [Example 60]: under setting [1], the inhibition at 10 µM lay within 35 to 70%. The IC50 (read-out: MC4R IC50) is > 3 µM.

Turning to `N[C@@H](Cc1ccc(OCc2ccccc2)cc1)C(=O)N1CCN(Cc2cccc(Oc3cc(Cl)cc(Cl)c3)c2)CC1` [Example 86], the inhibition at 10 µM under setting [1] lay within 91 to 100%. Besides, the IC50 (read-out: MC4R IC50) is < 1.5 µM.

`N[C@@H](Cc1ccc(OCCc2ccccc2Cl)cc1)C(=O)N1CCN(Cc2cccc(Cl)c2Cl)CC1` [Example 242]: the “Displacement Rate (%) (at 10 μM)” value under setting [1] is listed as “+++ (+++ = 91-100)”. Besides, the IC50 (read-out: MC4R IC50) is < 1.5 µM. As for `Cc1ccsc1CN1CCCN(C(=O)[C@@H](N)Cc2ccc(OCc3ccccc3)cc2)CC1` [Example 48], the inhibition at 10 µM under setting [1] lay within 35 to 70%. Further, the IC50 (read-out: MC4R IC50) is > 3 µM.
